Laboratory results: ChEMBL document CHEMBL4321885, “Biomimetic Macrocyclic Inhibitors of Human Cathepsin D: Structure-Activity Relationship and Binding Mode Analysis” (J Med Chem, 2020)
The source made the active and inactive calls. The calls are words filed in the database; no cut-off is given here. Non-standard residues stand in square brackets, D forms with d. Residues, ends and D or L forms follow the SMILES beside them. *: point of attachment. Sta = CC(C)C[C@H](N)[C@@H](O)CC(=O)O; Isovaleryl = CC(C)CC(=O)*

How the values were obtained:
Cathepsin D = Cathepsin D (Homo sapiens, UniProt P07339); experiment: Inhibition of human placenta CatD using Abz-Lys-Pro-Ala-Glu-Phe-Nph-Ala-Leu as substrate preincubated for 10 mins followed by substrate addition and measured by FRET assay
Renin (Homo sapiens) [1] = target: T1, Renin (Homo sapiens) (UniProt P00797); experiment: Inhibition of recombinant human N-terminal FLAG-tagged renin (67 to 406 residues) expressed in HEK cells at 50 nM using Arg-Glu(EDANS)-Ile-His-Pro-Phe-His-Leu-Val-Ile-His-Thr-Lys(Dabcyl)-Arg as substrate preincubated for 10 mins followed by substrate addition and measured by FRET assay
T1 sequence (whole entry): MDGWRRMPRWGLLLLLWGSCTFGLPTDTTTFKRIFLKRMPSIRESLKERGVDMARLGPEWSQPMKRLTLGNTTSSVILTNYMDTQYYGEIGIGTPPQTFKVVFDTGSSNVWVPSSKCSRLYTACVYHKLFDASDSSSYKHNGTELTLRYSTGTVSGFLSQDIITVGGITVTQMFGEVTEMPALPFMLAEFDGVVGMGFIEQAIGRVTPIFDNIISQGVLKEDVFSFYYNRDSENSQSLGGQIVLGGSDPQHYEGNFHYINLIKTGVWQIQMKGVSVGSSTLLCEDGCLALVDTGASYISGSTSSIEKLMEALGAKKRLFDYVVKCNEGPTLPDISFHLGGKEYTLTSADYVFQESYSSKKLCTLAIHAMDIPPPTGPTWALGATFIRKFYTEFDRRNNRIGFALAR

[2] = target: Beta-secretase 1 (Homo sapiens) (UniProt P56817); experiment: Inhibition of recombinant human C-terminal 10His-tagged BACE1 expressed in mouse NS0 cells at 50 nM using Mca-Ser-Glu-Val-Asn-Leu-Asp-Ala-Glu-Phe-Arg-Lys(Dnp)-Arg-Arg as substrate preincubated for 10 mins followed by substrate addition and measured by FRET assay
[3] = target: Protease (Human immunodeficiency virus 1) (UniProt Q9YQ12); experiment: Inhibition of HIV1 protease at 50 nM using Abz-Tyr-Ile-Nle-Nph-Gln-Arg as substrate preincubated for 10 mins followed by substrate addition and measured by FRET assay
Ixodes ricinus = experiment: Inhibition of Ixodes ricinus CatD expressed in Escherichia coli BL21(DE3) at 50 nM using Abz-Lys-Pro-Ala-Glu-Phe-Nph-Ala-Leu as substrate preincubated for 10 mins followed by substrate addition and measured by FRET assay
[4] = target: Saccharopepsin (Saccharomyces cerevisiae S288c) (UniProt P07267); experiment: Inhibition of Baker's yeast proteinase A at 50 nM using Abz-Lys-Pro-Ala-Glu-Phe-Nph-Ala-Leu as substrate preincubated for 10 mins followed by substrate addition and measured by FRET assay
Renin (Homo sapiens) [5] = target: T1, Renin (Homo sapiens); experiment: Inhibition of recombinant human N-terminal FLAG-tagged renin (67 to 406 residues) expressed in HEK cells at 5 uM using Arg-Glu(EDANS)-Ile-His-Pro-Phe-His-Leu-Val-Ile-His-Thr-Lys(Dabcyl)-Arg as substrate preincubated for 10 mins followed by substrate addition and measured by FRET assay
[6] = target: Beta-secretase 1 (Homo sapiens) (UniProt P56817); experiment: Inhibition of recombinant human C-terminal 10His-tagged BACE1 expressed in mouse NS0 cells at 5 uM using Mca-Ser-Glu-Val-Asn-Leu-Asp-Ala-Glu-Phe-Arg-Lys(Dnp)-Arg-Arg as substrate preincubated for 10 mins followed by substrate addition and measured by FRET assay
[7] = target: Protease (Human immunodeficiency virus 1) (UniProt Q9YQ12); experiment: Inhibition of HIV1 protease at 5 uM using Abz-Tyr-Ile-Nle-Nph-Gln-Arg as substrate preincubated for 10 mins followed by substrate addition and measured by FRET assay

Sequence of Protease (Human immunodeficiency virus 1) (Q9YQ12 as listed by the source): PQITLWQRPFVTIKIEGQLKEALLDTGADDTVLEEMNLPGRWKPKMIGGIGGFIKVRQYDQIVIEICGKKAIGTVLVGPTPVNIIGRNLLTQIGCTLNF
Sequence of Cathepsin D (P07339 65-162 limits assumed): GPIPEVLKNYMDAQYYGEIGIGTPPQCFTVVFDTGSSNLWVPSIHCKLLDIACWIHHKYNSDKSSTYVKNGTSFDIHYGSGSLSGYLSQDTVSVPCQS
Sequence of Cathepsin D (P07339 169-412 limits assumed): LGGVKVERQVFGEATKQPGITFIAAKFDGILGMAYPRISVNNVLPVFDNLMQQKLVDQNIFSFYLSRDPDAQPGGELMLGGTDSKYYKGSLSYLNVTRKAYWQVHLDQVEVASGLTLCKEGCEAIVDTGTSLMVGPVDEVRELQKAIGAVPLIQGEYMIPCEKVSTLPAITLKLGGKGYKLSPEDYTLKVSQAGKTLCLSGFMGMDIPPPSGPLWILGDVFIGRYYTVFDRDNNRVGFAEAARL
Sequence of Beta-secretase 1 (Homo sapiens) (P56817 whole entry): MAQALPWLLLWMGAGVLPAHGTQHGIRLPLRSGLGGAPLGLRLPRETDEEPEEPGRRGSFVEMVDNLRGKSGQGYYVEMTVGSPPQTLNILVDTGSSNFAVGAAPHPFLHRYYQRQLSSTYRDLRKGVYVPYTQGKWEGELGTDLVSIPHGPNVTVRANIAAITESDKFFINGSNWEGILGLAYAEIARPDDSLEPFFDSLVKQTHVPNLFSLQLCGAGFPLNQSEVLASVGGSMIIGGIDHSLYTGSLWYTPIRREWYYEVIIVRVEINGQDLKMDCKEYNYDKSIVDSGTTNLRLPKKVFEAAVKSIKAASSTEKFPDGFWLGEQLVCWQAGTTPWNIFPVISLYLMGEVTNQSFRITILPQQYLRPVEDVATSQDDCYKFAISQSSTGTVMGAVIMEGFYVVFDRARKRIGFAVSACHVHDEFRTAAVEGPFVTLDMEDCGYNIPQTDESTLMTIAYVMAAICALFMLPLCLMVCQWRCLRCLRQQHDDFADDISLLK
Sequence of Saccharopepsin (Saccharomyces cerevisiae S288c) (P07267 whole entry, the tested form may be a part): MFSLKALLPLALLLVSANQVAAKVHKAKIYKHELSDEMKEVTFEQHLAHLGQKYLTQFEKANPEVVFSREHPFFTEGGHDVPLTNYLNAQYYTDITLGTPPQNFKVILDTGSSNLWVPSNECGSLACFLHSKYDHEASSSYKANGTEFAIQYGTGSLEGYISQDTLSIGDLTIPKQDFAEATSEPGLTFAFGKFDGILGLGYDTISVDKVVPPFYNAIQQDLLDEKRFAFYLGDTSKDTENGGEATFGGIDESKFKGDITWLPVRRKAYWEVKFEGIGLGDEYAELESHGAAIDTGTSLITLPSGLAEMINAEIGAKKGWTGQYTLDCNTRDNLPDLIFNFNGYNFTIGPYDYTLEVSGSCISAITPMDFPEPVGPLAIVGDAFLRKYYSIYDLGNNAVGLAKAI

| Structure (SMILES) | IC50 (Cathepsin D) [nM] | inhibition (Renin (Homo sapiens) [1]) | inhibition [2] | inhibition [3] | inhibition (Ixodes ricinus) | inhibition [4] | inhibition (Renin (Homo sapiens) [5]) | inhibition [6] | inhibition [7] |
| --- | --- | --- | --- | --- | --- | --- | --- | --- | --- |
| CC(C)[C@@H]1NC(=O)C[C@H](O)[C@H](Cc2cscn2)NC(=O)CCCCCCCCCCCNC1=O | 600 | inactive | inactive | inactive | Active | Active | Active | Active | Active |
| CC(C)[C@@H]1NC(=O)NC[C@H](O)[C@H](Cc2ccccc2)NC(=O)CCCCCCCCCCCNC1=O | 21 | inactive | inactive | inactive | Active | Active | Active | Active | Active |
| CC(C)[C@@H]1NC(=O)C[C@H](O)[C@H](Cc2ccccc2)NC(=O)CCCCCCCCCCCCNC1=O | 3.5 | inactive | inactive | inactive | Active | Active | Active | Active | Active |
| C[C@@H](OCc1ccccc1)[C@@H]1NC(=O)C[C@H](O)[C@H](Cc2ccccc2)NC(=O)CCCCCCCCCCCNC1=O | 560 | inactive | inactive | inactive | Active | Active | Active | Active | Active |
| CC(C)C[C@@H]1NC(=O)CCCCCCCCCCCNC(=O)[C@H](C)NC(=O)C[C@@H]1O | 310 | inactive | inactive | inactive | Active | Active | Active | Active | Active |
| CC(C)[C@@H]1NC(=O)CC[C@H](Cc2ccccc2)NC(=O)CCCCCCCCCCCNC1=O | 2000 | inactive | inactive | inactive | Active | Active | Active | Active | Active |
| O=C1C[C@H](O)[C@H](Cc2ccccc2)NC(=O)CCCCCCCCCCCNC(=O)[C@H](C2CCCCC2)N1 | 8.2 | inactive | inactive | inactive | Active | Active | Active | Active | Active |
| CC(C)[C@@H]1NC(=O)C[C@H](O)[C@H](Cc2ccccc2)NC(=O)CCOCCOCCOCCNC1=O | 850 | inactive | inactive | inactive | Active | Active | Active | Active | Active |
| CC(C)[C@@H]1NC(=O)C[C@H](O)[C@H](Cc2ccc(Cl)c(Cl)c2)NC(=O)CCCCCCCCCCCNC1=O | 4.2 | inactive | inactive | inactive | Active | Active | Active | Active | Active |
| CC(C)CC(=O)N[C@H](C(=O)N[C@H](C(=O)N[C@@H](CC(C)C)[C@@H](O)CC(=O)O)C(C)C)C(C)C (Isovaleryl-Val-Val-[Sta]-OH) | 500 | – | – | – | – | – | – | – | – |
| CC(C)[C@@H]1NC(=O)C[C@H](O)[C@H](Cc2ccc(F)c(F)c2)NC(=O)CCCCCCCCCCCNC1=O | 3.1 | inactive | inactive | inactive | Active | Active | Active | Active | Active |

Continued, values first:

| IC50 (Cathepsin D) [nM] | inhibition (Renin (Homo sapiens) [1]) | inhibition [2] | inhibition [3] | inhibition (Ixodes ricinus) | inhibition [4] | inhibition (Renin (Homo sapiens) [5]) | inhibition [6] | inhibition [7] | Structure (SMILES) |
| --- | --- | --- | --- | --- | --- | --- | --- | --- | --- |
| 20 | inactive | inactive | inactive | Active | Active | Active | Active | Active | CC(C)[C@@H]1NC(=O)C[C@H](O)[C@H](CSCc2ccccc2)NC(=O)CCCCCCCCCCCNC1=O |
| 68 | inactive | inactive | inactive | Active | Active | Active | Active | Active | C[C@@H]1NC(=O)C[C@H](O)[C@H](Cc2ccccc2)NC(=O)CCCCCCCCCCCNC1=O |
| 340 | inactive | inactive | inactive | Active | Active | Active | Active | Active | CC(C)[C@@H]1NC(=O)C[C@H](O)[C@H](CS)NC(=O)CCCCCCCCCCCNC1=O |
| 40 | – | – | – | – | – | – | – | – | CC(C)CC(=O)N[C@H](C(=O)N[C@H](C(=O)N[C@@H](CC(C)C)[C@@H](O)CC(=O)N[C@@H](C)C(=O)O)C(C)C)C(C)C (Isovaleryl-VV[Sta]A-OH) |
| 5.8 | inactive | inactive | inactive | Active | Active | Active | Active | Active | CC(C)[C@@H]1NC(=O)C[C@H](O)[C@H](Cc2ccccc2)NC(=O)CCCCCCCCCCCNC1=O |
| 32 | inactive | inactive | inactive | Active | Active | Active | Active | Active | CC(C)[C@@H]1NC(=O)C[C@H](O)[C@H](Cc2ccccc2)NC(=O)CCCCCCCCCCCCCCNC1=O |
| 0.6 | inactive | inactive | inactive | Active | Active | Active | Active | Active | CC(C)[C@@H]1NC(=O)C[C@H](O)[C@H](Cc2ccc3ccccc3c2)NC(=O)CCCCCCCCCCCNC1=O |
| 2500 | – | – | – | – | – | – | – | – | CC(C)CC(=O)N[C@@H](CC(C)C)[C@@H](O)CC(=O)N[C@@H](C)C(=O)N[C@@H](CC(C)C)[C@@H](O)CC(=O)O |
| 55 | inactive | inactive | inactive | Active | Active | Active | Active | Active | CC(C)[C@@H]1NC(=O)C[C@H](O)[C@H](Cc2ccc(OCc3ccccc3)cc2)NC(=O)CCCCCCCCCCCNC1=O |
| > 200000 | – | – | – | – | – | – | – | – | CC(C)CC(=O)N[C@@H](CC(C)C)[C@@H](O)CC(=O)N[C@@H](C)C(=O)O |
| 39 | inactive | inactive | inactive | Active | Active | Active | Active | Active | CC(C)[C@@H]1NC(=O)C[C@H](O)[C@H](Cc2ccc(O)cc2)NC(=O)CCCCCCCCCCCNC1=O |
